Test results from US9676997B2, “Compositions and methods for stabilizing luminogenic substrates” (Promega Corporation, priority 2014, dated 2017).

Assays:
[1] = Stability of 1.25 mM coelenterazine-h in 50% ethanol and 50% propylene glycol with or without 225 mM ATT, HPLC and Arrhenius plots; format: physicochemical; details: 225 mM ATT, over time at different temperatures
Description: (§1) The stability of coelenterazine-h in the presence and absence of ATT was measured over time at different temperatures. Specifically, 1.25 mM coelenterazine-h was present in a solution of 50% ethanol and 50% propylene glycol (i.e., the solution without ATT) or a solution of 50% ethanol and 50% propylene glycol with 225 mM ATT (i.e., the solution with ATT). These two solutions were incubated at −20° C., room temperature (RT), 40° C., or 60° C. and analyzed at for 0 days, 1 day, 3 days, 7 days, 15 days, and 30 days.
(§2) Following incubation, high performance liquid chromatography (HPLC) was utilized to identify the components of the respective solutions at each time point. Specifically, an Agilent 1100 HPLC instrument was used and equipped with a quaternary pump, thermostatted autosampler and column compartment, and a G1311B diode-array detector. The column used was a Synergi-MAX-RP (Phenomenex, Torrance, Calif.) 100 AÅ 50×4.6 2.5 μm. The run on the HPLC was a gradient run with 0.1% TFA in water and acetonitrile. Absorbance was measured at 262 nanometers (nm). Standards of coelenterazine-h and its known degradants were run to confirm both the retention time and absorbance trace. 5 μl of each solution was injected and the retention time of coelenterazine-h was 4.7 minutes at room temperature.
(§3) The results of the HPLC analysis are shown below in Tables 4 and 5 and FIGS. 2A and 2B, in which the values are reported as relative peak area percentage at 262 nm (i.e., the lamba max of the substrate). […] In each of FIGS. 2A and 2B, diamond is 1.25 mM coelenterazine-h incubated over time with or without 225 mM ATT, respectively, at −20° C., triangle is 1.25 mM coelenterazine-h incubated over time with or without 225 mM ATT, respectively, at room temperature (RT), star is 1.25 mM coelenterazine-h incubated over time with or without 225 mM ATT, respectively, at 40° C., and cross is 1.25 mM coelenterazine-h incubated over time with or without 225 mM ATT, respectively, at 60° C.
From the HPLC analysis, the half-life of coelenterazine-h in the presence of ATT at 40° C. and 60° C. was calculated to be 20 days and 5 days, respectively, while the half-life of coelenterazine-h in the absence of ATT at 20° C., 40° C. and 60° C. was calculated to be 24 days, 7.5 days and 2 days, respectively (see Table 6 below).
Additionally, Arrhenius plots were generated for coelenterazine-h in the presence and absence of ATT to calculate the half-life of coelenterazine-h at various temperatures. The Arrhenius equation is as follows: […]
In FIG. 9, the slope was −8131.2, the intercept was 22.6157, and R^2 was 0.9994.
In FIG. 10, the slope was −7310.53, the intercept was 21.4386, and R^2 was 0.9964.

[2] = Stability of 1.25 mM coelenterazine-h-h in 50% ethanol and 50% propylene glycol with or without 225 mM ATT, HPLC and Arrhenius plots; format: physicochemical; details: 225 mM ATT, over time at different temperatures
Description: as §1, with “coelenterazine-h-h” for “coelenterazine-h”, “at” for “at for”
as §2, with “coelenterazine-h-h” for “coelenterazine-h”, “coelenterazine-h-h” for “coelenterazine-h was 4.7 minutes”, “temperature was 5.5 minutes.” for “temperature.”
as §3, with “Tables 7” for “Tables 4”, “and 8” for “and 5”, “FIGS. 3A” for “FIGS. 2A”, “and 3B,” for “and 2B,”, “mM coelenterazine-h-h” for “mM coelenterazine-h”
From the HPLC analysis, the half-life of coelenterazine-h-h in the presence of ATT at 60° C. was calculated to be 10 days while the half-life of coelenterazine-h-h in the absence of ATT at 40° C. and 60° C. was calculated to be 27 days and 8 days, respectively (see Table 9 below).
Additionally, Arrhenius plots were generated for coelenterazine-h-h in the presence and absence of ATT to calculate the half-life of coelenterazine-h-h at various temperatures. The Arrhenius equation is as follows: […]
In FIG. 11, the slope was −10740.9, the intercept was 30.0575, and R^2 was 0.9967.
In FIG. 12, the […], and R^2 was 0.9648.

Cc1n[nH]c(=S)[nH]c1=O [ATT, 6-methyl-3-thioxo-3,4-dihydro-1,2,4-triazin-5(2H)-one]
stabilization of coelenterazine-h against decomposition [1]: stabilized coelenterazine-h against decomposition over time at different temperatures | stabilization of coelenterazine-h-h against decomposition [2]: stabilized coelenterazine-h-h against decomposition over time at different temperatures
